Results reported in patent US12083098B2, “Treatment of idiopathic pulmonary fibrosis with glycogen synthase kinase 3 form β inhibitors” (Actuate Therapeutics Inc., priority 2018, dated 2024).
“Also recorded” adds a separate entry of the source.

Key:
[1] = test system: bleomycin-induced pulmonary fibrosis; experiment: Bleomycin-induced pulmonary fibrosis model in mice; assay type: in vivo, C57BL/6 mice
Procedure: All animal studies were approved by the Institutional Animal Care and Use Committee at the University of Texas Health Science Center at Tyler. C57BL/6 mice (10-12 weeks of age, ≈20 g (from Jackson Laboratory, Bar Harbor ME) were first anesthetized with xylazine/ketamine by intraperitoneal (TP) injection. Lung injury was then initiated in accordance with (Sisson T H et al., Am J Pathol 2015, 185:[…]) with some modifications. Bleomycin sulfate (Teva, 0.8 units/kg) was administered intratracheally via an intratracheal cannula. Animals were monitored daily for sign of respiratory distress, significant weight loss or moribund condition. The control group received normal saline under the same conditions.
Treatments were begun 14 d after the initiation of injury. For GSK-3β inhibitor studies, treatment with 9-ING-41 (gift from Actuate Therapeutics, Ft. Worth, TX), at 30 mg/kg, or vehicle control dimethylsulfoxide/DMSO in a volume of 40 μl, was administered daily by IP injection for up to 14 d.
At the completion of the 28 d time course mice were evaluated by flexivent (Tucker T et al., Am J Respir Cell Mol Biol 2019 (doi: 10.1165/rcmb.2018-0121OC. Epub ahead of print); Kamata H et al., Sci Rep 2017, 7:4556; Boren J et al., supra; Tucker T A et al., 2014, supra; Tucker T A et al., Clin Transl Med 5: 17, 2016) for changes in pulmonary function including elastance and compliance. Briefly, mice were anesthetized with a ketamine/xylazine mixture. Anesthetized mice were intubated by inserting a sterile, 20-gauge intravenous cannula through the vocal cords into the trachea and were maintained under anesthesia using isoflurane during pulmonary function testing. Measurements were performed using the flexiVent system (SCIREQ, Tempe AZ). The “snapshot perturbation method” was used to determine lung compliance, according to manufacturer's specifications. At 28 d, mice were euthanized and lungs harvested en bloc. Lung morphometry was determined by trichrome staining of 5 μm lung tissue sections as described in the above cited references. All tissue sections were first de-paraffinized and subjected to antigen retrieval using a citrate buffer at 95° C. for 20 minutes. Tissue analyses, collagen deposition and localization were initially assessed by Trichrome staining. Immunofluorescence was used to visualize α-SMA (MAB1420, R&D), Confocal microscopy was then used to visualize immunofluorescence and co-localization of the markers. Images were acquired from a field of view at 0.4-μm z-axis increments with the LSM 510 Meta confocal system (Carl Zeiss) at 40× as described.
(§1) All statistical analyses of animal studies was performed using the Mann Whitney U test. (Student's t-test was used for in vitro studies). A p-value of less than 0.05 was considered significant.

[2] = test system: TGF-β adenovirus induced pulmonary fibrosis; experiment: TGF-β adenovirus-induced pulmonary fibrosis model in mice; assay type: in vivo
Procedure: In a second model, pulmonary fibrosis was initiated by intratracheal instillation of constitutively active TGF-β adenoviral vectors (Ad-TGF-β) bearing C223S/C225S mutations, as reported by Mackinnon A C et al., Am J Respir Crit Care Med 2012, 185:537-46) with some modifications. Briefly, 3×10^8 pfu of Ad-TGF-β or eGFP adenovirus control vector (Ad-eGFP) were administered intratracheally in a volume of 40 μl. Mice were then monitored daily until the completion of the 14 d time-course. For GSK-3β inhibition studies, mice received daily 9-ING-41 treatment 7 d after administration of the adenoviral vectors. At the conclusion of the time-course pulmonary function testing and CT scans were performed as described (Tucker T et al., 2019, supra; Kamata H et al., 2017, supra; Boren J et al., 2017, supra; Tucker T A et al., 2016, supra.
as §1
Pulmonary fibrosis was initiated by intratracheal instillation of constitutively active TGF-β adenoviral vectors (Ad-TGF-0) bearing C223S/C225S mutations, as previously reported (Mackinnon A C et al., Am J Respir Crit Care Med 2012, 185:537-46) with some modifications. Briefly, 3×10^8 plaque forming units (pfu) of Ad-TGF-β or eGFP adenovirus control vector (Ad-eGFP) were administered intratracheally in a volume of 40 μl. Mice were then monitored daily until the completion of the 14 d time-course. For GSK-3β inhibition studies, mice received daily 9-ING-41 treatment 7 d after administration of the adenoviral vectors. At the conclusion of the time-course pulmonary function testing and CT scans were performed as described (Tucker T et al., 2019, supra; Kamata H et al., 2017, supra; Boren J et al., 2017, supra; Tucker T A et al., 2016, supra.

**Q.** Which “lung volume (gated CT scan)” value ([1]; bleomycin 0.8 U/kg intratracheal, 30 mg/kg daily ip from day 14, read at 28 d, vs DMSO vehicle, p=0.026, 30 mg/kg) does the source give for Cn1cc(C2=C(c3coc4ccc(F)cc34)C(=O)NC2=O)c2cc3c(cc21)OCO3 [9-ING-41] here?
**A.** significantly improved; also recorded: increased lung volume

**Q.** What about the “collagen 1 deposition in lung sections (immunostaining, confocal microscopy 40×)” value ([1]; bleomycin injured lungs, compared to vehicle (DMSO) treated controls) of the same molecule?
**A.** reduced

**Q.** And the “areas of injury / fibrotic foci in lung sections (Trichrome)” value ([1]; bleomycin model, 30 mg/kg daily ip, 5 μm sections, n=6, compared to vehicle treated animals)?
**A.** fewer in number and smaller

**Q.** What about the “collagen deposition within the fibrotic lesions” value ([1]; bleomycin model, 30 mg/kg daily ip, compared to DMSO-treated controls) of the same molecule?
**A.** generally reduced

**Q.** And the “lung compliance (Scireq flexivent)” value ([1]; bleomycin sulfate 0.8 U/kg intratracheal, 9-ING-41 30 mg/kg daily ip from day 14 for up to 14 d, read at 28 d, vs DMSO vehicle, p=0.04, 30 mg/kg)?
**A.** significantly improved; also recorded: improved lung function

**Q.** And the “α-SMA expression in lung sections (immunostaining, confocal microscopy 40×)” value ([1]; marker of myofibroblast differentiation, n=3 mice/treatment, compared to vehicle (DMSO))?
**A.** reduced

**Q.** And the lung compliance ([2]; Ad-TGF-β 3×10^8 pfu intratracheal, 9-ING-41 30 mg/kg daily ip from day 7 for 7 d, read at 14 d, n=6, p<0.05 vs controls, 30 mg/kg)?
**A.** significantly improved; also recorded: improved lung function

**Q.** What about the lung volume ([2]; TGF-β adenovirus model, at completion of 14 d time course) of the same molecule?
**A.** increased lung volume

**Q.** And the “areas of injury and collagen deposition in lung sections (Trichrome)” value ([2]; TGF-β adenovirus model, compared to DMSO-treated controls, n=6)?
**A.** reduced areas of injury
